Columns and labels:
[1] = system: Human monocytes; assay: Chemotaxis assay (monocyte migration in agarose plates); format: cell-based; design: key: (cells migrating to attractant − cells migrating to buffer)/10
From the text: Briefly, monocyte migration is directly observed in a chemotaxis chamber.
A comparative study comparing the chemotactic activity of the peptides of the invention with the chemotactic activity of peptide T (C. B. Pert et al., Proc. Natl. Acad. Sci., Vol. 83, pp. 9254-9258, 1986) was undertaken. […] Human monocytes were obtained by the known technique of layering heparinized blood on FICOLL-HYPAQUE differential dentrifugation medium in a centrifuge tube and spinning to separate the red blood cells from plasma and the monolayered monocytes. The monocytes were pipetted off and then washed with physiological saline.
The agarose plates were also prepared in accordance with conventional methods. Agarose type II (0.4 g), available from Sigma Chemical, and LITEX gelatin (0.3 g) were combined and heated until the gelatin was thoroughly dissolved. RMPI-HANK buffer (4 ml), distilled water (15.2 ml) and saturated NaHCO3 solution (0.8 ml) were then added to the agarose gelatin and mixed to homogeneity. 5 ml aliquots of the resulting solution were poured into plastic petri dishes (FALCON 55 mm) and allowed to gel. After the agarose has sufficiently hardened, wells, 3 mm in diameter were cut in the agarose, such that each dish had six rows of wells radiating from the center of the dish, each row containing three wells spaced apart by a distance of 3 mm. Thus, each plate was used to assay two test samples in triplicate. 8 ul of the test peptide (in 120 mM HEPES buffer) was placed on the outermost well, 8 ul of monocyte cell solution was placed in the center well and 8 ul of RPMI-HANKS buffer was placed in the innermost well. The migration of monocytes was visually observed and the number of migrating cells was determined. A chemotactic index was calculated as the number of cells which migrated toward the attractant, i.e., test peptide or control, less the number of cells that migrated towards the buffer divided by 10. Formyl-Met-Leu-Phe (FMLP) and (D-Ala)Peptide-T were used as positive control and HEPES buffer and Leu-Gly-Gly were used as negative controls.

[2] = system: binding of HIV to T4 cells; details: reported by Pert et al., PNAS 1986; cited from earlier work
[3] = attractant concentration 10^-9 M
[4] = attractant concentration 10^-10 M
[5] = attractant concentration 10^-11 M

## ALA--SER--SER--SER--ASN--TYR--MET (ASSSNYM; printed: ALA--SER--SER--SER--ASN--TYR--MET) [Example 6, linear heptapeptide]
[1]; [3]
  Chemotactic Index: 4.9
[1]; [4]
  Chemotactic Index: 4.7
[1]; [5]
  Chemotactic Index: 5.1

## Ala-Ser-Thr-Thr-Thr-Asn-Tyr-Thr [peptide T]
[2]
  Blocking of the binding of HIV to T4 cells (in words): block the binding of HIV to T4 cells

## H-SER-SER-ASN-TYR-MET (SSNYM; printed: SER-SER-ASN-TYR-MET) [Example 8, linear pentapeptide]
[1]; [3]
  Chemotactic Index: 5.0
[1]; [4]
  Chemotactic Index: 4.8
[1]; [5]
  Chemotactic Index: 6.0

## SER--SER--SER--ASN--TYR--MET (SSSNYM; printed: SER--SER--SER--ASN--TYR--MET) [Example 7, linear hexapeptide]
[1]; [3]
  Chemotactic Index: 4.6
[1]; [4]
  Chemotactic Index: 5.1
[1]; [5]
  Chemotactic Index: 5.3

Reference: patent US5162499A, “Synthetic peptides for the treatment of AIDS” (Heterocyclic Research, Inc., priority 1991, dated 1992)
